Measurements reported in PubChem BioAssay (NCI).
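Five concentrations, 48 hours, 96-well plates. GI50 = concentration required for 50% inhibition of growth. The concentration for full growth arrest is given as TGI.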

Assays:
Experiment in all cases: NCI tumour cell line growth inhibition, 48 h
HCT-116 colon = tested on: HCT-116 colon
A549 NSCLC = tested on: A549 NSCLC
CCRF-CEM leukemia = tested on: CCRF-CEM leukemia
ACHN renal = tested on: ACHN renal
MDA-MB-435 = tested on: MDA-MB-435
EKVX NSCLC = tested on: EKVX NSCLC
BT-549 breast = tested on: BT-549 breast
OVCAR-3 ovarian = tested on: OVCAR-3 ovarian
SR leukemia = tested on: SR leukemia
T-47D breast = tested on: T-47D breast
PC-3 prostate = tested on: PC-3 prostate
RXF 393 renal = tested on: RXF 393 renal
SW-620 colon = tested on: SW-620 colon
K-562 leukemia = tested on: K-562 leukemia
SK-OV-3 ovarian = tested on: SK-OV-3 ovarian
NCI-H23 lung = tested on: NCI-H23 lung
UACC-62 melanoma = tested on: UACC-62 melanoma
M14 melanoma = tested on: M14 melanoma
SF-295 CNS = tested on: SF-295 CNS
NCI-H522 lung = tested on: NCI-H522 lung
OVCAR-8 ovarian = tested on: OVCAR-8 ovarian
NCI-H460 lung = tested on: NCI-H460 lung
HCT-15 colon = tested on: HCT-15 colon
HCC-2998 colon = tested on: HCC-2998 colon
NCI/ADR-RES ovarian = tested on: NCI/ADR-RES ovarian
KM12 colon = tested on: KM12 colon
MCF7 breast = tested on: MCF7 breast
DU-145 prostate = tested on: DU-145 prostate
HOP-62 NSCLC = tested on: HOP-62 NSCLC
SF-539 CNS = tested on: SF-539 CNS
SK-MEL-28 melanoma = tested on: SK-MEL-28 melanoma
MDA-MB-231 breast = tested on: MDA-MB-231 breast
A498 renal = tested on: A498 renal
NCI-H226 lung = tested on: NCI-H226 lung
SNB-19 CNS = tested on: SNB-19 CNS
U251 CNS = tested on: U251 CNS
OVCAR-5 ovarian = tested on: OVCAR-5 ovarian
LOX IMVI melanoma = tested on: LOX IMVI melanoma
UO-31 renal = tested on: UO-31 renal
SF-268 CNS = tested on: SF-268 CNS
786-0 renal = tested on: 786-0 renal
HL-60(TB) leukemia = tested on: HL-60(TB) leukemia
HOP-92 NSCLC = tested on: HOP-92 NSCLC
CAKI-1 renal = tested on: CAKI-1 renal
SNB-75 CNS = tested on: SNB-75 CNS
SK-MEL-5 melanoma = tested on: SK-MEL-5 melanoma
OVCAR-4 ovarian = tested on: OVCAR-4 ovarian
RPMI-8226 leukemia = tested on: RPMI-8226 leukemia
HS 578T breast = tested on: HS 578T breast
SK-MEL-2 melanoma = tested on: SK-MEL-2 melanoma
MOLT-4 leukemia = tested on: MOLT-4 leukemia
SN12C renal = tested on: SN12C renal
IGROV1 ovarian = tested on: IGROV1 ovarian

Cc1ccc(S(=O)(=O)c2nc(-c3ccc(F)cc3)oc2S(C)(=O)=O)cc1
GI50 (HCT-116 colon): 1.53 µM
TGI (HCT-116 colon): 2.94 µM
GI50 (A549 NSCLC): > 100 µM
TGI (A549 NSCLC): > 100 µM
GI50 (CCRF-CEM leukemia): 2.92 µM
TGI (CCRF-CEM leukemia): > 100 µM
GI50 (ACHN renal): 1.74 µM
TGI (ACHN renal): 3.13 µM
GI50 (MDA-MB-435): 13.7 µM
TGI (MDA-MB-435): > 100 µM
GI50 (EKVX NSCLC): > 100 µM
TGI (EKVX NSCLC): > 100 µM
GI50 (BT-549 breast): 14.1 µM
TGI (BT-549 breast): > 100 µM
GI50 (OVCAR-3 ovarian): > 100 µM
TGI (OVCAR-3 ovarian): > 100 µM
GI50 (SR leukemia): 1.06 µM
GI50 (T-47D breast): 1.73 µM
TGI (T-47D breast): 3.67 µM
GI50 (PC-3 prostate): > 21.9 µM
TGI (PC-3 prostate): > 100 µM
GI50 (RXF 393 renal): 5.16 µM
TGI (RXF 393 renal): > 100 µM
GI50 (SW-620 colon): 2.4 µM
GI50 (K-562 leukemia): 2.94 µM
TGI (K-562 leukemia): > 100 µM
GI50 (SK-OV-3 ovarian): > 93.5 µM
TGI (SK-OV-3 ovarian): > 100 µM
GI50 (NCI-H23 lung): 3.13 µM
TGI (NCI-H23 lung): > 100 µM
TGI (UACC-62 melanoma): > 100 µM
GI50 (M14 melanoma): > 100 µM
TGI (M14 melanoma): > 100 µM
GI50 (SF-295 CNS): > 100 µM
TGI (SF-295 CNS): > 100 µM
GI50 (NCI-H522 lung): 2.27 µM
GI50 (OVCAR-8 ovarian): 6.88 µM
TGI (OVCAR-8 ovarian): > 100 µM
GI50 (NCI-H460 lung): > 100 µM
TGI (NCI-H460 lung): > 100 µM
GI50 (HCT-15 colon): 3.95 µM
TGI (HCT-15 colon): > 100 µM
GI50 (HCC-2998 colon): > 100 µM
TGI (HCC-2998 colon): > 100 µM
GI50 (NCI/ADR-RES ovarian): > 31.8 µM
TGI (NCI/ADR-RES ovarian): > 100 µM
GI50 (KM12 colon): > 100 µM
TGI (KM12 colon): > 100 µM
GI50 (MCF7 breast): 3.78 µM
TGI (MCF7 breast): > 100 µM
GI50 (DU-145 prostate): > 100 µM
TGI (DU-145 prostate): > 100 µM
GI50 (HOP-62 NSCLC): > 100 µM
TGI (HOP-62 NSCLC): > 100 µM
GI50 (SF-539 CNS): > 100 µM
TGI (SF-539 CNS): > 100 µM
GI50 (SK-MEL-28 melanoma): > 100 µM
TGI (SK-MEL-28 melanoma): > 100 µM
GI50 (MDA-MB-231 breast): > 100 µM
TGI (MDA-MB-231 breast): > 100 µM
GI50 (A498 renal): > 100 µM
TGI (A498 renal): > 100 µM
GI50 (NCI-H226 lung): > 20.2 µM
TGI (NCI-H226 lung): > 100 µM
GI50 (SNB-19 CNS): > 77.6 µM
TGI (SNB-19 CNS): > 100 µM
GI50 (U251 CNS): 16.9 µM
TGI (U251 CNS): > 100 µM
GI50 (OVCAR-5 ovarian): > 100 µM
TGI (OVCAR-5 ovarian): > 100 µM
GI50 (LOX IMVI melanoma): 2.04 µM
GI50 (UO-31 renal): > 100 µM
TGI (UO-31 renal): > 100 µM
GI50 (SF-268 CNS): > 35 µM
TGI (SF-268 CNS): > 100 µM
GI50 (786-0 renal): > 100 µM
TGI (786-0 renal): > 100 µM
GI50 (HL-60(TB) leukemia): 1.65 µM
TGI (HL-60(TB) leukemia): 5.57 µM
GI50 (HOP-92 NSCLC): 6.69 µM
TGI (HOP-92 NSCLC): > 100 µM
GI50 (CAKI-1 renal): 4.83 µM
TGI (CAKI-1 renal): > 100 µM
GI50 (SNB-75 CNS): > 23.5 µM
TGI (SNB-75 CNS): > 100 µM
GI50 (SK-MEL-5 melanoma): > 100 µM
TGI (SK-MEL-5 melanoma): > 100 µM
GI50 (OVCAR-4 ovarian): > 100 µM
TGI (OVCAR-4 ovarian): > 100 µM
GI50 (RPMI-8226 leukemia): > 100 µM
TGI (RPMI-8226 leukemia): > 100 µM
TGI (HS 578T breast): > 52.9 µM
GI50 (SK-MEL-2 melanoma): > 21 µM
TGI (SK-MEL-2 melanoma): > 100 µM
GI50 (MOLT-4 leukemia): 4.61 µM
TGI (MOLT-4 leukemia): > 100 µM
GI50 (SN12C renal): 8.51 µM
TGI (SN12C renal): > 100 µM
GI50 (IGROV1 ovarian): > 100 µM
TGI (IGROV1 ovarian): > 100 µM
